Results taken from ChEMBL document CHEMBL1144980, “Lupane triterpenes and derivatives with antiviral activity” (Bioorg Med Chem Lett, 2003).

Experiments:
Human alphaherpesvirus 1 [1] = assay: Antiviral activity against HSV-1 determined by inhibition of viral cytopathic effect (CPE) in rhabdomyosarcoma (RD) cell line; format: functional, organism-based, herpes simplex virus; settings: Human alphaherpesvirus 1, RD
Influenza A virus [2] = assay: Antiviral activity against influenza A virus determined in chicken embryo cells (CEC) by plaque reduction assay method.; format: functional, organism-based
Human alphaherpesvirus 1 [3] = assay: Ratio of maximum nontoxic concentration (MNTC) against HSV-1 to that of effective concentration (EC50); format: functional, herpes simplex virus
Influenza A virus [4] = assay: Ratio of maximum nontoxic concentration (MNTC) against Influenza virus A to that of effective concentration (EC50); format: functional

Q: With `C=C(C)[C@@H]1CC[C@]2(C(=O)N[C@@H](CCSC)C(=O)OC)CC[C@@]3(C)C(CC[C@@H]4[C@@]5(C)CCC(=O)C(C)(C)C5CC[C@]43C)C12` (some centres not stated) as the compound, how does the EC50 (Human alphaherpesvirus 1 [1]) read?
A: Its EC50 is greater than 666 µM.

Q: And the EC50 (Influenza A virus [2])?
A: Its EC50 is 14.2 µM.

Q: And the Ratio (Human alphaherpesvirus 1 [3])?
A: The Ratio was less than 1.

Q: And the Ratio (Influenza A virus [4])?
A: The Ratio was 11.9.

Q: For `C=C(C)[C@@H]1CC[C@]2(C(=O)O)CC[C@]3(C)[C@H](CC[C@@H]4[C@@]5(C)CCC(=O)C(C)(C)[C@@H]5CC[C@]43C)[C@@H]12` [BETUNOLIC ACID], which EC50 (Human alphaherpesvirus 1 [1]) is on record?
A: The EC50 was 2.5 µM.

Q: What about the EC50 (Influenza A virus [2]) of the same compound?
A: The EC50 was 5.7 µM.

Q: And the Ratio (Human alphaherpesvirus 1 [3])?
A: The Ratio was 43.9.

Q: What about the Ratio (Influenza A virus [4]) of the same compound?
A: Its Ratio is 9.6.

Q: With `C=C(C)[C@@H]1CCC2(NC(=O)N[C@@H](C(=O)OC)C(C)C)CC[C@@]3(C)C(CC[C@@H]4[C@@]5(C)CCC(=O)C(C)(C)C5CC[C@]43C)C12` (some centres not stated) as the compound, how does the EC50 (Human alphaherpesvirus 1 [1]) read?
A: The EC50 was 0.2 µM.

Q: And the EC50 (Influenza A virus [2])?
A: Its EC50 is greater than 85.7 µM.

Q: What about the Ratio (Human alphaherpesvirus 1 [3]) of the same compound?
A: Its Ratio is 454.

Q: What about the Ratio (Influenza A virus [4]) of the same compound?
A: Its Ratio is less than 1.

Q: What does the source list for `C=C(C)[C@@H]1CCC2(NC(=O)N[C@H](CC(C)C)C(=O)OC)CC[C@@]3(C)C(CC[C@@H]4[C@@]5(C)CCC(=O)C(C)(C)C5CC[C@]43C)C12` (some centres not stated)?
A: EC50 (Human alphaherpesvirus 1 [1]): 14.6 µM; EC50 (Influenza A virus [2]): 5 µM; Ratio (Human alphaherpesvirus 1 [3]): 11.5; Ratio (Influenza A virus [4]): >67

Q: How did the EC50 (Human alphaherpesvirus 1 [1]) turn out when `C=C(C)[C@@H]1CC[C@]2(N=C=O)CC[C@@]3(C)C(CC[C@@H]4[C@@]5(C)CCC(=O)C(C)(C)C5CC[C@]43C)C12` (some centres not stated) was run?
A: Its EC50 is greater than 221 µM.

Q: And the EC50 (Influenza A virus [2])?
A: Its EC50 is greater than 221 µM.

Q: What about the Ratio (Human alphaherpesvirus 1 [3]) of the same compound?
A: Its Ratio is less than 1.

Q: And the Ratio (Influenza A virus [4])?
A: The Ratio was less than 1.

Q: How did the EC50 (Human alphaherpesvirus 1 [1]) turn out when `C=C(C)[C@@H]1CC[C@]2(C(=O)NN)CC[C@@]3(C)C(CC[C@@H]4[C@@]5(C)CC/C(=N\O)C(C)(C)C5CC[C@]43C)C12` (some centres not stated) was run?
A: Its EC50 is greater than 51.6 µM.

Q: And the EC50 (Influenza A virus [2])?
A: Its EC50 is 2 µM.

Q: What about the Ratio (Human alphaherpesvirus 1 [3]) of the same compound?
A: Its Ratio is less than 1.

Q: What about the Ratio (Influenza A virus [4]) of the same compound?
A: Its Ratio is 25.2.

Q: `C=C(C)[C@@H]1CC[C@]2(C(N)=O)CC[C@@]3(C)C(CC[C@@H]4[C@@]5(C)CCC(=O)C(C)(C)C5CC[C@]43C)C12` (some centres not stated) was tested. Which EC50 (Human alphaherpesvirus 1 [1]) did it give?
A: Its EC50 is 220 µM.

Q: What about the EC50 (Influenza A virus [2]) of the same compound?
A: The EC50 was 0.7 µM.

Q: And the Ratio (Human alphaherpesvirus 1 [3])?
A: Its Ratio is less than 1.

Q: What about the Ratio (Influenza A virus [4]) of the same compound?
A: Its Ratio is 1333.3.

Q: What does the source list for `C=C(C)[C@@H]1CC[C@]2(C(=O)O)CC[C@]3(C)[C@H](CC[C@@H]4[C@@]5(C)CC[C@H](O)C(C)(C)[C@@H]5CC[C@]43C)[C@@H]12` [BETULINIC ACID]?
A: EC50 (Human alphaherpesvirus 1 [1]): 8.2 µM; EC50 (Influenza A virus [2]): > 219 µM; Ratio (Human alphaherpesvirus 1 [3]): 53.3; Ratio (Influenza A virus [4]): <1

Q: Which results are given for `C=C(C)[C@@H]1CC[C@]2(C(=O)N[C@H](C(=O)OC)C(C)C)CC[C@@]3(C)C(CC[C@@H]4[C@@]5(C)CCC(=O)C(C)(C)C5CC[C@]43C)C12` (some centres not stated)?
A: EC50 (Human alphaherpesvirus 1 [1]): 142 µM; EC50 (Influenza A virus [2]): 13.3 µM; Ratio (Human alphaherpesvirus 1 [3]): 2.5; Ratio (Influenza A virus [4]): 3.4

Q: Which results are given for `C=C(C)[C@@H]1CC[C@]2(C(=O)NCCO)CC[C@@]3(C)C(CC[C@@H]4[C@@]5(C)CCC(=O)C(C)(C)C5CC[C@]43C)C12` (some centres not stated)?
A: EC50 (Human alphaherpesvirus 1 [1]): > 377 µM; EC50 (Influenza A virus [2]): > 755 µM; Ratio (Human alphaherpesvirus 1 [3]): <1; Ratio (Influenza A virus [4]): <1

Q: How did the EC50 (Human alphaherpesvirus 1 [1]) turn out when `C=C(C)[C@@H]1CC[C@]2(C(=O)NN)CC[C@@]3(C)C(CC[C@@H]4[C@@]5(C)CCC(=O)C(C)(C)C5CC[C@]43C)C12` (some centres not stated) was run?
A: Its EC50 is 10 µM.

Q: What about the Ratio (Human alphaherpesvirus 1 [3]) of the same compound?
A: Its Ratio is 21.3.

Q: What does the source list for `C=C(C)[C@@H]1CC[C@]2(C(=O)NCCCCCCCCCCCCCCCCCC)CC[C@@]3(C)C(CC[C@@H]4[C@@]5(C)CCC(=O)C(C)(C)C5CC[C@]43C)C12` (some centres not stated)?
A: EC50 (Human alphaherpesvirus 1 [1]): 1.4 µM; EC50 (Influenza A virus [2]): 55.5 µM; Ratio (Human alphaherpesvirus 1 [3]): 177; Ratio (Influenza A virus [4]): 4.6

Q: How did the EC50 (Human alphaherpesvirus 1 [1]) turn out when `C=C(C)[C@@H]1CC[C@]2(C(=O)N[C@@H](C)C(=O)OC)CC[C@@]3(C)C(CC[C@@H]4[C@@]5(C)CCC(=O)C(C)(C)C5CC[C@]43C)C12` (some centres not stated) was run?
A: Its EC50 is 663 µM.

Q: What about the EC50 (Influenza A virus [2]) of the same compound?
A: The EC50 was greater than 234 µM.

Q: And the Ratio (Human alphaherpesvirus 1 [3])?
A: Its Ratio is 1.4.

Q: And the Ratio (Influenza A virus [4])?
A: The Ratio was less than 1.

Q: `C=C(C)[C@@H]1CC[C@]2(C(=O)N[C@@H](CC(C)C)C(=O)OC)CC[C@@]3(C)C(CC[C@@H]4[C@@]5(C)CCC(=O)C(C)(C)C5CC[C@]43C)C12` (some centres not stated) was tested. Which EC50 (Human alphaherpesvirus 1 [1]) did it give?
A: The EC50 was 1370 µM.

Q: What about the EC50 (Influenza A virus [2]) of the same compound?
A: The EC50 was 72.3 µM.

Q: And the Ratio (Human alphaherpesvirus 1 [3])?
A: Its Ratio is less than 1.

Q: And the Ratio (Influenza A virus [4])?
A: Its Ratio is 1.2.

Q: Which results are given for `C=C(C)[C@@H]1CCC2(NC(=O)N[C@H](CCSC)C(=O)OC)CC[C@@]3(C)C(CC[C@@H]4[C@@]5(C)CC/C(=N\O)C(C)(C)C5CC[C@]43C)C12` (some centres not stated)?
A: EC50 (Human alphaherpesvirus 1 [1]): 0.6 µM; EC50 (Influenza A virus [2]): 2.3 µM; Ratio (Human alphaherpesvirus 1 [3]): 67.6; Ratio (Influenza A virus [4]): 35.2

Q: For `C=C(C)[C@@H]1CCC2(NC(=O)N[C@H](CCSC)C(=O)OC)CC[C@@]3(C)C(CC[C@@H]4[C@@]5(C)CCC(=O)C(C)(C)C5CC[C@]43C)C12` (some centres not stated), which EC50 (Human alphaherpesvirus 1 [1]) is on record?
A: Its EC50 is 2.2 µM.

Q: And the EC50 (Influenza A virus [2])?
A: The EC50 was 27.1 µM.

Q: And the Ratio (Human alphaherpesvirus 1 [3])?
A: Its Ratio is 298.5.

Q: And the Ratio (Influenza A virus [4])?
A: The Ratio was 3.
